Reference: US20070066483A1, “Plant Nourishing” (priority 2004, published 2007)

System: carnations
Assay: Preservation of cut carnations in vases of distilled water with one additive each
Format: in vivo
Details: one cut carnation per vase, one teaspoon of additive in 1 cup distilled water; for order in which the flowers collapsed: collapsed = flower fell to a side of the stem
Method: The materials in the experiment used included seven vases; one cutting knife; one teaspoon each of lemon-lime soda, sugar, aspirin, house bleach, vitamins, a sports drink, including citric acid, potassium, sodium, sugar and water, eight cups of warm distilled water, and seven fresh carnations Each of the seven vases were filled with 1 cup of distilled water. One teaspoon of each additive was added to its own separate vase of distilled water. One vase only contained distilled water because it was used as the control group. Each carnation was cut on the end at a slant. […] Referring to FIG. 3, the conditions of each flower were recorded after every 24-hour period on a scale from “1” to “10.” Scores between “7” to “10” are “good,” scores between “4” to “6” are “fair,” and scores between “0” to “3” are poor. […] A flower was “collapsed” when it decayed to a point where the flower 14 fell to a side of the stem 18. Aspirin is recommended to preserve flowers by many florists because it lowers the PH level of water, making it more acidic. Acid helps water move more easily up the tubes in a flower's stem 18. However, some florists argue that aspirin can damage flowers, which this experiment supported. Bleach was used in the experiment because bleach kills bacteria, which is harmful to flowers. However, the bleach and water solution only preserved its flower for ten out of nineteen days. […] The carnation with vitamins and water solution may have collapsed because of bacteria growth that developed in the vase. The control group (water only) preserved its carnation for an average length of thirteen days. […] All three solutions contained sugar, a vital substance needed by plants to carry out photosynthesis. The flower with the lemon lime soda lasted for sixteen days, and the flower with sugar lasted for eighteen days. The sports drink and water was the solution that preserved its flower the longest, approximately twenty-nine days.

Row | Molecule | order in which the flowers collapsed | time the flower was preserved (until collapse) (condition recorded every 24 hours)
1 | CC(=O)Oc1ccccc1C(=O)O [aspirin] | first flowers to collapse | –
2 | sugar | last three flowers to remain fresh | eighteen
